The record followed here is patent US20010041669A1, “Prevention of diabetes” (priority 1995, published 2001).

The subject of data set [1] is receptor (receptor binding assay) or mouse free fat cell (lipogenesis). Briefly: Biological activity relative to human insulin, receptor binding or lipogenesis assays. Particulars: for Activity relative to human insulin (= 1.00): either receptor binding or lipogenesis assays. From the text: Metab. Res. 6, 12-16 and Vølund (1978) Biometrics 34, 357-365 or in the receptor binding assay as described by Andersen et al. (1992) J. Biol. Chem. 267, 13681-13686.
Methods of analysing the biological activity (hypoglycaemic effect) of insulins are well know, and include receptor binding assays using whole cells or soluble receptors, the mouse free fat cell assay, euglycaemic pig clamp assay, intravenous rabbit blood glucose assay and the subcutaneous mouse blood glucose assay (Vølund et al. (1991) Diabetic Medicine, 8, 839-847, Brange et al. (1990) Diabetes Care 13, 923-954, Drejer (1992) Diabetes/Metabolism Reviews 8, 259-286)

Data set [2] concerns NOD mice. Briefly: Effect on blood glucose level of daily subcutaneous injection in NOD mice (Example 1). It is filed as in vivo, mouse. Conditions: for effect on blood glucose level: day 7, 6 hours after injection, female NOD mice. The procedure:
Furthermore, 4 of the 5 animals receiving insulin (3.8 mg/kg) died of hypoglycaemia after 3-5 days of treatment and animal number five had to be sacrificed on day seven due to symptoms of hypoglycaemia.

Another data set has as its system C57/BL mice. Briefly: Effect of oral administration on blood glucose level in mice (Example 4). It is filed as in vivo, mouse. Conditions: oral gavage 1 mg, 2 times a week, after 4 weeks of treatment; non-fasted; 15 minutes. The procedure: After 4 weeks of treatment, the effect on the blood glucose level in non-fasted animals was analyzed. An initial blood sample was taken in order to determine the control blood glucose level. 15-30 minutes later the animals were fed by gavage and the blood glucose level was determined after further 15, 60 and 180 minutes. […] Insulin is a well known growth factor and has a direct mitogenic effect. The consequence of having a high concentration of intact insulin in the gut lumen directly exposing gut epithelium to its effect is not known but could potentially be serious.

Data set [3] has as its system NOD mice. The data set can be described thus: Prophylactic effect of daily subcutaneous administration on diabetes and survival in NOD mice (Example 2). It is filed as in vivo. Conditions: for diabetes incidence versus buffer treated animals at 40 weeks of age: s.c. daily 0.77 mg/kg from 5 to 32 weeks of age, after termination of treatment; for diabetes incidence versus buffer treated animals at 31 weeks of age: s.c. daily 0.77 mg/kg from 5 weeks of age, after 26 weeks of treatment, female NOD mice; for mice died of hypoglycaemia during the treatment period: 0.77 mg/kg; for protection against development of diabetes compared with human insulin: daily s.c., equimolar doses (0.77 mg/kg), NOD mice. The procedure: Female NOD (non-obese diabetic) mice, 4 weeks old, were obtained from Bommice (Bomholtgård, Ry, Denmark). At the beginning of the experiment there were a total of 30 animals in each of the three groups mentioned below. […] The treatment was continued until the mice were 32 weeks old, at which age treatment was stopped and the mice observed until they were 40 weeks old. Beginning when the mice were 10 weeks old, the urine was tested weekly for the presence of glucose using glucosuria test tape (Tes-Tape, Lilly, Indianapolis, Ind.). If an animal tested positive in the glucose urine test, a blood sample was taken and blood glucose measured using a glucose analyzer. If the blood glucose was 15 mmol/l or higher, the animal was classified as diabetic and then sacrificed.

For data set [4], the system named is NOD mice. The data set can be described thus: Daily subcutaneous administration in the initial stage of diabetes in NOD mice (Example 3). The data set is classed as in vivo. Conditions: for frequency of diabetes compared to buffer treated animals: s.c. daily 0.77 mg/kg from 10 to 37 weeks of age, effect from 15 weeks until end, female NOD mice; for cases of diabetes after termination of the treatment: treatment stopped at 37 weeks, observed until 39 weeks. On the procedure:
Female NOD (non-obese diabetic) mice, 4-5 weeks old, were obtained from the Jackson Laboratory (Bar Harbour, Me.). At the beginning of the experiment, there were a total of 20 animals in each of the three groups mentioned below. […] The treatment was continued until the mice were 37 weeks old, at which age treatment was stopped. The mice were observed until they were 39 weeks old. Beginning when the mice were 10 weeks old, the urine was tested weekly for the presence of glucose using glucosuria test tape (Tes-Tape, Lilly, Indianapolis, Ind.). If an animal tested positive in the glucose urine test, a blood sample was taken and blood glucose measured using a glucose analyzer. If the blood glucose was 15 mmol/l or higher, the animal was classified as diabetic and sacrificed.

Turning to Gly^A2,Gly^A3 human insulin, the “Activity relative to human insulin (= 1.00)” value in data set [1] stood at 0.00014.
As to D-Cys^A11 human insulin, the “Activity relative to human insulin (= 1.00)” value in data set [1] was 0.007.
For the substance human insulin [reference compound], in the data set on NOD mice [2] (s.c. daily 0.6 mg/kg), the “effect on blood glucose level” value is “marked hypoglycaemic effect”. For the same substance, the “time of death from hypoglycaemia” value with NOD mice [2] (s.c. daily 3.8 mg/kg, days of treatment) was in the range of 3 to 5 days. For the same substance, in the data set on NOD mice [2] (s.c. daily 3.8 mg/kg, group of 5 NOD mice), the “animals died of hypoglycaemia” value was 4 of the 5. The “blood glucose level immediately after feeding” value with C57/BL mice is “profound immediate reduction in the blood glucose level”. Further, in the data set on NOD mice [3], the “diabetes incidence versus buffer treated animals at 40 weeks of age” value is “still significantly (p<0.05) lower” and the “diabetes incidence versus buffer treated animals at 31 weeks of age” value is reported as “significantly reduced the incidence of diabetes”. In addition, the “mice died of hypoglycaemia during the treatment period” value in the data set on NOD mice [3] (s.c. daily 0.77 mg/kg, 30 animals per group) is recorded as “approx. 50%”. The “mice died of hypoglycaemia during the treatment period” value in the data set with NOD mice [3] (s.c. daily 0.77 mg/kg, 30 animals per group, listed as insulin) is on record as 50%. For the same substance, in the data set on NOD mice [4], the “frequency of diabetes compared to buffer treated animals” value was “reduced the frequency of diabetes” and the “cases of diabetes after termination of the treatment” value is “no cases of diabetes occurred”.
On to D-Cys^A7 human insulin, for which, in data set [1], the “Activity relative to human insulin (= 1.00)” value was determined as 0.002.
Take Ala^A2 human insulin: the “Activity relative to human insulin (= 1.00)” value in data set [1] is 0.006.
With Pro^A2 human insulin, the “Activity relative to human insulin (= 1.00)” value in data set [1] is given as 0.01.
Still for that read-out and setting: with Thr^A2 human insulin the figure was 0.001; with Leu^A3 human insulin, 0.0018; with Val^A2,Ile^A3 human insulin, 0.021.
The same measure, in the same setting: the figure for desA1 human insulin is 0.006; for des (A1-A2) human insulin it is 0.0014; for Gly^B6 human insulin it is 0.0005.
Still for that read-out and setting: with Glu^B12 human insulin the figure was 0.0004.
For the substance Abu^A2,Abu^A3 human insulin, in data set [1], the “Activity relative to human insulin (= 1.00)” value worked out at 0.0041.
Turning to des (B1-B5) human insulin, the “Activity relative to human insulin (= 1.00)” value in data set [1] is 0.05.
The same measure, in the same setting: with Asn^B12 human insulin the figure was 0.002; with D-allo Ile^A2 human insulin, 0.002; with des (B1-B6) human insulin, 0.0004.
On the same count and under the same terms, the figure for D-Ala^B12 human insulin is 0.007; for Nva^A3 human insulin it is 0.014.
As for des (B24-B30) human insulin, the “Activity relative to human insulin (= 1.00)” value in data set [1] worked out at 0.002.
On the same count and under the same terms, with Phe^B12 human insulin the figure was 0.002; with desA21 human insulin, 0.04; with D-Cys^A6 human insulin, 0.0023.
The same measure, in the same setting: the figure for Gly^A2 human insulin is 0.01; for D-Cys^A6,D-Cys^A11 human insulin it is 0.00027; for des (A1-A3) human insulin it is 0.0011.
On the same count and under the same terms, with des (B25-B30) human insulin the figure was 0.06; with Leu^A19 human insulin, 0.001.
With Nle^A3 human insulin, in data set [1], the “Activity relative to human insulin (= 1.00)” value amounted to 0.0038.
Regarding des (B23-B30) human insulin, in data set [1], the “Activity relative to human insulin (= 1.00)” value was determined as 0.001.
Nle^A2 human insulin: in data set [1], the “Activity relative to human insulin (= 1.00)” value was determined as 0.01.
The same measure, in the same setting: with “Ser^A6,Ser^A11,des(A8-A10) human insulin” the figure was 0.0001.
As to Asp^B25 human insulin, the “mice died or displayed hypoglycaemia” value in the data set with NOD mice [2] (s.c. daily 17.3, 5.8 or 0.6 mg/kg, 26 days observation period) is given as “None”. For the same substance, the “effect on blood glucose level” value in the data set on NOD mice [2] (s.c. daily 17.3, 5.8 or 0.6 mg/kg) is “do not affect the blood glucose levels”. Also, in the data set on NOD mice [3] (0.77 mg/kg s.c. daily until 32 weeks, observed until 40 weeks), the “cases of diabetes after termination of treatment” value was determined as 1 case. Further, in the data set with NOD mice [3] (listed as X38, 0.77 mg/kg), the “protection against development of diabetes compared with human insulin” value was “prevented the development of diabetes to the same, or higher degree as insulin did”. The “protection against development of diabetes compared with human insulin” value in the data set on NOD mice [3] (listed as human insulin with a single amino acid substitution in position B25, 0.77 mg/kg) was “protects as well against diabetes as equimolar doses of human insulin does”. Besides, in the data set on NOD mice [3], the “diabetes incidence versus buffer treated animals at 40 weeks of age” value is listed as “still highly significantly lower” and the “diabetes incidence versus buffer treated animals at 31 weeks of age” value is “highly significantly (p<0.01) lower”. Further, the treated animals died entry in the data set with NOD mice [3] (s.c. daily 0.77 mg/kg, 30 animals per group, not statistically different from buffer group) was “one”. Also, in the data set on NOD mice [4], the “frequency of diabetes compared to buffer treated animals” value is on record as “reduced the frequency of diabetes to the same, or higher degree as insulin did” and the “cases of diabetes after termination of the treatment” value is “no cases of diabetes occurred”. Moreover, the treated animals died result with NOD mice [4] (s.c. daily 0.77 mg/kg, 20 animals per group) is “none”. In data set [1], the “hormonally active (relative to human insulin)” value is recorded as “less than 0.1%” and the “Activity relative to human insulin (= 1.00)” value came out at 0.001.
